Here are results for 13 molecules from patent publication US12084436B2, “Heterocyclic compound” (Takeda Pharmaceutical Company Limited, priority 2019, dated 2024).

The test has as its target T1, HDAC6 enzyme (Homo sapiens, UniProt Q9UBN7).
T1 construct: prepared by transducing full length HDAC6 gene into Sf-9 insect cells; GST; purchased SignalChem; host or cells: Sf-9 insect cells
T1 sequence (Q9UBN7 1-1215): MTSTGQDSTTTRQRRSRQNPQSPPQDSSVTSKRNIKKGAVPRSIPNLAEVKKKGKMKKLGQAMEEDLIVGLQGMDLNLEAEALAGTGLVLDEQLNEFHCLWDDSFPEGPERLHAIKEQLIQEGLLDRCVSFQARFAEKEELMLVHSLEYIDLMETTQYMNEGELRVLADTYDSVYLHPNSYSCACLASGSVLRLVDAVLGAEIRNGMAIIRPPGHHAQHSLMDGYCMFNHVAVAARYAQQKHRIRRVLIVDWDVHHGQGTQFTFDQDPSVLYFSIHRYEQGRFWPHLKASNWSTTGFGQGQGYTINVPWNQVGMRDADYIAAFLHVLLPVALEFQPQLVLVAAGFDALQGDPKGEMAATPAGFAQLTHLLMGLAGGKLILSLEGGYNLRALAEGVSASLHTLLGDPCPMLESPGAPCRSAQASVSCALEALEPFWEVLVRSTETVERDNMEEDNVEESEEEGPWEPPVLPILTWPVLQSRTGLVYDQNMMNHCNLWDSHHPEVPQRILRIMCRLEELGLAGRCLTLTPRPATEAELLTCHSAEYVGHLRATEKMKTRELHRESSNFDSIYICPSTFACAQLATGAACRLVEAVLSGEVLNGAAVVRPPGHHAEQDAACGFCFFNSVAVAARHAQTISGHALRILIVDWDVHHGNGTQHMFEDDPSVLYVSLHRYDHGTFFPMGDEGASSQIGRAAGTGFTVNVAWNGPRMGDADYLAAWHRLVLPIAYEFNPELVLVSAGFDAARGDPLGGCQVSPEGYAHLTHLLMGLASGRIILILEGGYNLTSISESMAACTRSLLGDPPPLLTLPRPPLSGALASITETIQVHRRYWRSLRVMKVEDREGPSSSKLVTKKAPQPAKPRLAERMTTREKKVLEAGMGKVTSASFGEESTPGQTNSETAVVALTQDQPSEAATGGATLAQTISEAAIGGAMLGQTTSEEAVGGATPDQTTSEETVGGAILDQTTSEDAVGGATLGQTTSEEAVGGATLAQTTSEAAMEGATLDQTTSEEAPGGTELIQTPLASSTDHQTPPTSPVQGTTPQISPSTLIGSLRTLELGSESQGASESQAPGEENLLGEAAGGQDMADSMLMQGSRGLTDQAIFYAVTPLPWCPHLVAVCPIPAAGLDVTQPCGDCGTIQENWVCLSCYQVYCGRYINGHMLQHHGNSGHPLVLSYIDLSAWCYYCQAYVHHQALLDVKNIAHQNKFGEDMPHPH
Nature of the test: HDAC6 enzyme inhibitory assay (HDAC-Glo I/II Assay kit, luminescence). To be noted: 10 μM test compound, wells without enzyme = 100% inhibition; for inhibition at 10 µM: read-out: HDAC6 inhibitory rate (%) (10 μM). In kind it is biochemical. As for the experimental part: HDAC6 Enzyme Inhibitory Assay
HDAC6 enzyme prepared by transducing full length HDAC6 gene into Sf-9 insect cells and purifying by GST affinity column were purchased from SignalChem. Using this enzyme, HDAC6 enzyme inhibitory activities of the compound of the present invention were evaluated. Enzymes were used after preserved at −70° C. HDAC6 enzyme inhibitory activity of the compound of the present invention was measured using HDAC-Glo™ I/II Assay kit (Promega) according to the following experimental method. The test compound diluted with assay buffer (24 mM Tris-HCl (pH 7.5), 1 mM MgCl2, 0.35 mM KCl, 135 mM NaCl, 0.6 mM Glutathione, 0.01% Tween-20) was added to a 384-well plate by each 2 μL. Then, HDAC6 enzyme solution diluted with assay buffer was added thereto by each 4 μL, and the plate was incubated at room temperature for 60 min. After incubated, HDAC substrate-Developer solution prepared according to Promega protocol attached to the assay kit was added to the 384-well plate by each 2 μL, and the enzyme reaction was started. After reacting at room temperature for 20 min, luminescence level was measured using plate reader Envision (PerkinElmer). The inhibitory activity of each compound of Example was calculated as a relative activity value when luminescence level in wells without enzyme is considered as 100% inhibition.

Turning to `CN1C(=O)c2cc(-c3nnc(C(F)F)o3)cnc2CC1(C)c1ccc(F)c(F)c1` (single isomer, unassigned; isomer 2) [Example 40b, 3-[5-(difluoromethyl)-1,3,4-oxadiazol-2-yl]-7-(3,4-difluorophenyl)-6,7-dimethyl-7,8-dihydro-1,6-naphthyridin-5(6H)-one (optical isomer 2)], the “HDAC6 inhibitory rate (%) (10 μM)” value amounted to 100%.
Same read-out and setting: next, `CN1C(=O)c2cc(-c3nnc(C(F)F)o3)ccc2CC1c1ccc(F)cc1` (single isomer, unassigned; isomer 2) [Example 42b, 7-[5-(difluoromethyl)-1,3,4-oxadiazol-2-yl]-3-(4-fluorophenyl)-2-methyl-3,4-dihydroisoquinolin-1(2H)-one (optical Isomer 2)]: 93%.
Consider `N#Cc1cc(Cn2ccnc2-c2cc(-c3nnc(C(F)F)o3)ccn2)ccc1F` [Example 1a, 5-[(2-{4-[5-(difluoromethyl)-1,3,4-oxadiazol-2-yl]pyridin-2-yl}-1H-imidazol-1-yl)methyl]-2-fluorobenzonitrile], for which the inhibition at 10 µM stood at 100%.
The same measure, in the same setting: next, `COC(=O)N(Cc1ccc(F)cc1)N1Cc2ccc(-c3nnc(C(F)F)o3)cc2C1=O` [Example 1c, methyl {6-[5-(difluoromethyl)-1,3,4-oxadiazol-2-yl]-1-oxo-1,3-dihydro-2H-isoindol-2-yl}[(4-fluorophenyl)methyl]carbamate]: 99%; `FC(F)c1nnc(-c2cccc(-n3nccc3C3CC3)c2)o1` [Example 2a, 2-[3-(5-cyclopropyl-1H-pyrazol-1-yl)phenyl]-5-(difluoromethyl)-1,3,4 oxadiazole]: 104%; `O=C1NN(c2ccc(F)cc2)Cc2ccc(-c3nnc(C(F)F)o3)cc21` [Example 2b, 7-[5-(difluoromethyl)-1,3,4-oxadiazol-2-yl]-3-(4-fluorophenyl)-3,4-dihydrophthalazin-1(2H)-one]: 100%.
With `O=C1c2cc(-c3nnc(C(F)F)o3)ccc2CN1N(Cc1ccc(F)cc1)CC1CCOCC1` [Example 2c, 6-[5-(difluoromethyl)-1,3,4-oxadiazol-2-yl]-2-{[(4-fluorophenyl)methyl][(oxan-4-yl)methyl]amino}-2,3-dihydro-1H-isoindol-1-one], the inhibition at 10 µM stood at 99%.
Same read-out and setting: next, `FC(F)c1nnc(-c2ccnc(-c3nccn3Cc3ccccn3)c2)o1` [Example 3a, 4-[5-(difluoromethyl)-1,3,4-oxadiazol-2-yl]-2-{1-[(pyridin-2-yl)methyl]-1H-imidazol-2-yl}pyridine]: 99%; `O=C1NN(c2ccc(F)cc2)Cc2ncc(-c3nnc(C(F)F)o3)cc21` [Example 3b, 3-[5-(difluoromethyl)-1,3,4-oxadiazol-2-yl]-7-(4-fluorophenyl)-7,8-dihydropyrido[2,3-d]pyridazin-5(6H)-one]: 101%.
Same read-out and setting: in the case of `CC(C)(C)OC(=O)NN1Cc2ccc(-c3nnc(C(F)F)o3)cc2C1=O` [Example 3c, tert-butyl {6-[5-(difluoromethyl)-1,3,4-oxadiazol-2-yl]-1-oxo-1,3-dihydro-2H-isoindol-2-yl}carbamate] it was 99%; in that of `Fc1cc(-c2nnc(C(F)F)o2)cc(-c2nccn2Cc2ccccc2)c1` [Example 4a, 2-[3-(1-benzyl-1H-imidazol-2-yl)-5-fluorophenyl]-5-(difluoromethyl)-1,3,4-oxadiazole], 99%; in that of `CN1C(=O)c2cc(-c3nnc(C(F)F)o3)ccc2OC1(C)c1ccccc1` (stereo not shown) [Example 4b, 6-[5-(difluoromethyl)-1,3,4-oxadiazol-2-yl]-2,3-dimethyl-2-phenyl-2,3-dihydro-4H-1,3-benzoxazin-4-one], 99%.
On the same count and under the same terms, in the case of `CC(C)(C)OC(=O)N(Cc1ccccc1)N1Cc2ccc(-c3nnc(C(F)F)o3)cc2C1=O` [Example 4c, tert-butyl benzyl {6-[5-(difluoromethyl)-1,3,4-oxadiazol-2-yl]-1-oxo-1,3-dihydro-2H-isoindol-2-yl}carbamate] it was 100%.
